Results on two compounds are retold here after patent US12460317B2 (The Texas A&M University System, priority 2019, dated 2025).

Starred links: 1 amine or outer side, 2 acyl side, 3 side chain; linkers in the order of their positions; H or OH if unused. Positions of bridges follow the written chain, without caps; N, C: chain ends. Residues, ends and D or L forms follow the SMILES beside them. *: point of attachment. 5FAM = O=C1OC2(c3ccc(O)cc3Oc3cc(O)ccc32)c2ccc(C(=O)*)cc21; CH2CH2CO = O=C(CC[*:1])[*:2]

The conditions of assay [1]: physiological conditions; cited from earlier work.
In assay [2] the target is HDAC8 (Homo sapiens, UniProt Q9BY41). The experiment in a line: biochemical.
HDAC8, sequence (Q9BY41 whole entry): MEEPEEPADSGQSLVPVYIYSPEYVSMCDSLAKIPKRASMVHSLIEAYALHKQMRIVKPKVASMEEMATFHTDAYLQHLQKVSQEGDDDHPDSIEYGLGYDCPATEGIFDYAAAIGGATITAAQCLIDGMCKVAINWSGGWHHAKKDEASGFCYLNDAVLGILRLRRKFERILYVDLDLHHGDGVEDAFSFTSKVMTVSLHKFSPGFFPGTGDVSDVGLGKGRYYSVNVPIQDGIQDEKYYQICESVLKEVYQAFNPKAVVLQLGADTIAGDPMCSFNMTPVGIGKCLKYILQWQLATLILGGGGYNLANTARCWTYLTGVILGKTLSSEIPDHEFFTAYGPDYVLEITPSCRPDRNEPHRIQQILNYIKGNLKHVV
Procedure: Applicants incubated a 25 nM 5-FAM-conjugated cyclic peptide and different concentrations of a target protein (160 nM to 160 μM) in black 96-well plates in a 200 μL total volume that was adjusted by adding a PBS buffer. The fluorescence polarization was measured in a microplate reader at Ex/Em=490 nm/520 nm.

For `C=CC(=O)NCCCC[C@H](N)C(=O)O` [AcrK, N^ε-acryloyl-lysine], in assay [1], the “second-order rate constant of reaction with a thiol” value was 0.004 M⁻¹ s⁻¹.

One may read the Kd as a measure of binding affinity in units of concentration. In the case of `CSCC[C@@H]1NC(=O)[C@H](Cc2c[nH]c3ccccc23)NC(=O)[C@H](CC(C)C)NC(=O)[C@H](CO)NC(=O)[C@H](CCC(N)=O)NC(=O)[C@@H](N)CSCCC(=O)NCCCC[C@@H](C(=O)N[C@@H](CCCCNC(=O)c2ccc3c(c2)C(=O)OC32c3ccc(O)cc3Oc3cc(O)ccc32)C(N)=O)NC(=O)[C@H](CC(N)=O)NC1=O` [CycH8a, CQSLWMNX] (H-CQSLWMNKK(5FAM)-NH2; linker 1-8 via CH2CH2CO), binding in assay [2] was put at a Kd of 7.1 µM.
